5 molecules from ChEMBL document CHEMBL1649141, “Synthesis and antimalarial activities of cyclen 4-aminoquinoline analogs” (Antimicrob Agents Chemother, 2009) can be followed below.

Calls of active or inactive are those of the source. No cut-off for these calls is given here. A value given as a limit tells only on which side of the number the result lay.

The test system of one data set is Vero. In words: Cytotoxicity against african green monkey Vero cells upto 10 uM after 72 hrs. In kind it is cell-based. Particulars: chlorocebus sabaeus.
In data set [1] the test system is Plasmodium falciparum. Nature of the data set: Antimalarial activity against chloroquine-sensitive Plasmodium falciparum D6 after 72 hrs. In kind it is functional, organism-based. To be noted: D6, 72 h.
A short description of data set [2]: Selectivity index, ratio of IC50 for african green monkey Vero cells to IC50 for chloroquine-sensitive Plasmodium falciparum D6. The class given is toxicity, cell-based. Particulars: read-out: Selectivity Index.
The subject of data set [3] is Plasmodium falciparum. Nature of the data set: Antimalarial activity against chloroquine-resistant Plasmodium falciparum W2 after 72 hrs. In kind it is functional, organism-based. To be noted: W2, 72 h.
Data set [4] in a line: Selectivity index, ratio of IC50 for african green monkey Vero cells to IC50 for chloroquine-resistant Plasmodium falciparum W2. The class given is toxicity, cell-based. To be noted: read-out: Selectivity Index.
The test system of data set [5] is Plasmodium berghei. Nature of the data set: Antimalarial activity against Plasmodium berghei NK-65 infected in Swiss Webster mouse assessed as mean survival time at 30 mg/kg, ip QD for 3 days administered 2 hrs post infection. In kind it is functional. Particulars: route intraperitoneal.
Data set [6] has as its system Plasmodium berghei. Nature of the data set: Antimalarial activity against Plasmodium berghei NK-65 infected in Swiss Webster mouse assessed as cure from parasite infection at 30 mg/kg, ip QD for 3 days administered 2 hrs post infection measured on day 28. In kind it is functional. To be noted: route intraperitoneal.
Data set [7] in a line: Inhibition of beta-hematin formation after 14 hrs by spectrophotometry. In kind it is functional.
In data set [8] the test system is Plasmodium berghei. In words: Antimalarial activity against Plasmodium berghei NK-65 infected in Swiss Webster mouse assessed as suppression of parasitemia at 30 mg/kg, ip QD for 3 days administered 2 hrs post infection measured on day 7. The class given is functional. To be noted: route intraperitoneal.
Data set [9] has as its system Plasmodium berghei. In words: Antimalarial activity against Plasmodium berghei NK-65 infected in Swiss Webster mouse assessed as suppression of parasitemia at 30 mg/kg, ip QD for 3 days administered 2 hrs post infection measured on day 10. The class given is functional. Particulars: route intraperitoneal.
In the next data set the test system is Mus musculus. In words: Toxicity in Plasmodium berghei NK-65 infected Swiss Webster mouse at 30 mg/kg, ip QD for 3 days. In kind it is organism-based. More on the design: dose 30 mg/kg, route intraperitoneal. To be noted: in vivo, 72 h.
Data set [10] has as its system Plasmodium berghei. In words: Antimalarial activity against Plasmodium berghei NK-65 infected in Swiss Webster mouse assessed as suppression of parasitemia at 30 mg/kg, ip QD for 3 days administered 2 hrs post infection measured on day 5. To be noted: route intraperitoneal. In kind it is functional.
For data set [11], the system named is Plasmodium berghei. Nature of the data set: Antimalarial activity against Plasmodium berghei NK-65 infected in Swiss Webster mouse assessed as suppression of parasitemia at 3.3 mg/kg, ip QD for 3 days administered 2 hrs post infection measured on day 10. The class given is functional. Particulars: route intraperitoneal.
The test system of data set [12] is Plasmodium berghei. In words: Antimalarial activity against Plasmodium berghei NK-65 infected in Swiss Webster mouse assessed as suppression of parasitemia at 10 mg/kg, ip QD for 3 days administered 2 hrs post infection measured on day 5. The class given is functional. Particulars: route intraperitoneal.
Data set [13] relates to Plasmodium falciparum. Nature of the data set: Antimalarial activity against chloroquine-sensitive Plasmodium falciparum D6 assessed as [3H]hypoxanthine incorporation. In kind it is functional, organism-based.
Data set [14] relates to Plasmodium berghei. Nature of the data set: Antimalarial activity against Plasmodium berghei NK-65 infected in Swiss Webster mouse assessed as mean survival time at 1.1 mg/kg, ip QD for 3 days administered 2 hrs post infection measured on day 28. In kind it is functional. To be noted: route intraperitoneal.
In data set [15] the test system is Plasmodium berghei. In words: Antimalarial activity against Plasmodium berghei NK-65 infected in Swiss Webster mouse assessed as suppression of parasitemia at 1.1 mg/kg, ip QD for 3 days administered 2 hrs post infection measured on day 5. In kind it is functional. To be noted: route intraperitoneal.
In data set [16] the test system is Plasmodium berghei. In words: Antimalarial activity against Plasmodium berghei NK-65 infected in Swiss Webster mouse assessed as suppression of parasitemia at 3.3 mg/kg, ip QD for 3 days administered 2 hrs post infection measured on day 5. The class given is functional. To be noted: route intraperitoneal.
The subject of data set [17] is Plasmodium berghei. In words: Antimalarial activity against Plasmodium berghei NK-65 infected in Swiss Webster mouse assessed as suppression of parasitemia at 1.1 mg/kg, ip QD for 3 days administered 2 hrs post infection measured on day 10. In kind it is functional. Particulars: route intraperitoneal.
Data set [18] has as its system Plasmodium berghei. In words: Antimalarial activity against Plasmodium berghei NK-65 infected in Swiss Webster mouse assessed as cure from parasite infection at 1.1 mg/kg, ip QD for 3 days administered 2 hrs post infection measured after 28 days. More on the design: dose 1.1 mg/kg. In kind it is functional, organism-based.
Data set [19] has as its system Plasmodium berghei. In words: Antimalarial activity against Plasmodium berghei NK-65 infected in Swiss Webster mouse assessed as suppression of parasitemia at 10 mg/kg, ip QD for 3 days administered 2 hrs post infection measured on day 10. The class given is functional. To be noted: route intraperitoneal.
The test system of data set [20] is Plasmodium berghei. Nature of the data set: Antimalarial activity against Plasmodium berghei NK-65 infected in Swiss Webster mouse assessed as mean survival time at 10 mg/kg, ip QD for 3 days administered 2 hrs post infection. In kind it is functional. Particulars: route intraperitoneal.
In data set [21] the test system is Plasmodium berghei. Nature of the data set: Antimalarial activity against Plasmodium berghei NK-65 infected in Swiss Webster mouse assessed as cure from parasite infection at 3.3 mg/kg, ip QD for 3 days administered 2 hrs post infection measured on day 28. In kind it is functional, organism-based. More on the design: dose 3.3 mg/kg.
Data set [22] relates to Plasmodium berghei. In words: Antimalarial activity against Plasmodium berghei NK-65 infected in Swiss Webster mouse assessed as suppression of parasitemia at 1.1 mg/kg, ip QD for 3 days administered 2 hrs post infection measured on day 7. In kind it is functional. Particulars: route intraperitoneal.
Data set [23] deals with Plasmodium falciparum. Nature of the data set: Antimalarial activity against […]-resistant Plasmodium falciparum TM91C235 assessed as [3H]hypoxanthine incorporation. In kind it is functional, organism-based.
For data set [24], the system named is Plasmodium berghei. In words: Antimalarial activity against Plasmodium berghei NK-65 infected in Swiss Webster mouse assessed as cure from parasite infection at 10 mg/kg, ip QD for 3 days administered 2 hrs post infection measured on day 28. The class given is functional, organism-based. More on the design: dose 10 mg/kg.
Data set [25] deals with Plasmodium berghei. Nature of the data set: Antimalarial activity against Plasmodium berghei NK-65 infected in Swiss Webster mouse assessed as suppression of parasitemia at 10 mg/kg, ip QD for 3 days administered 2 hrs post infection measured on day 7. In kind it is functional. To be noted: route intraperitoneal.
The subject of data set [26] is Plasmodium berghei. In words: Antimalarial activity against Plasmodium berghei NK-65 infected in Swiss Webster mouse assessed as mean survival time at 3.3 mg/kg, ip QD for 3 days administered 2 hrs post infection. In kind it is functional. Particulars: route intraperitoneal.
The test system of data set [27] is Plasmodium berghei. In words: Antimalarial activity against Plasmodium berghei NK-65 infected in Swiss Webster mouse assessed as suppression of parasitemia at 3.3 mg/kg, ip QD for 3 days administered 2 hrs post infection measured on day 7. In kind it is functional. To be noted: route intraperitoneal.
Data set [28] has as its system Plasmodium falciparum. Nature of the data set: Antimalarial activity against chloroquine-resistant Plasmodium falciparum W2 assessed as [3H]hypoxanthine incorporation. In kind it is functional, organism-based.

As for `Br.Clc1ccc2c(N3CCNCCNCCNCC3)ccnc2c1`, in the data set with Vero, the Activity entry is “Non-toxic”. Also, the IC50 was 64.8 nM in the data set with Plasmodium falciparum [1] and 211 nM in the data set with Plasmodium falciparum [3]. The results for the selectivity ratio in data set [2] and in data set [4] were more than 154 and more than 48, respectively.

For the molecule `CCN(CC)CCCC(C)Nc1ccnc2cc(Cl)ccc12` (stereo not given) [CHLOROQUINE], the Time in the data set on Plasmodium berghei [5] was more than 28 days. Also, the Activity entry is “Non-toxic” with Vero; 75% in the data set on Plasmodium berghei [6]; 100% in the data set on Plasmodium berghei [8]; 100% with Plasmodium berghei [9]; “Non-toxic” with Mus musculus; 100% in the data set on Plasmodium berghei [10]. The IC50 in [7] was found to be 9500 nM.

Consider `Clc1ccc2c(N3CCNCCN(c4ccnc5cc(Cl)ccc45)CCNCC3)ccnc2c1`, for which the Activity in the data set on Plasmodium berghei [11] is on record as 43.9%; in the data set on Plasmodium berghei [12] it was 96.3%; in the data set on Plasmodium berghei [15], 65.2%; with Plasmodium berghei [16] it was 84.6%; with Plasmodium berghei [17], 22.7%; in the data set on Vero it was “Non-toxic”. The Activity in the data set on Plasmodium berghei [19] worked out at 40.9%; in the data set on Plasmodium berghei [6] it was 60%; in the data set on Plasmodium berghei [8], 100%; in the data set on Plasmodium berghei [9] it was 100%; with Plasmodium berghei [22], 33.3%; in the data set with Plasmodium berghei [10] it was 100%. Further, the values for the Activity in the data set with Plasmodium berghei [25] and in the data set on Plasmodium berghei [27] were 59.7% and 44.1%, respectively. Also, the IC50 in the data set on Plasmodium falciparum [13] came out at 4.1 nM; with Plasmodium falciparum [1], 7.5 nM; in data set [7] it was 1100 nM; in the data set with Plasmodium falciparum [23], 2.5 nM; in the data set on Plasmodium falciparum [3] it was 19.2 nM; with Plasmodium falciparum [28], 5.8 nM. The Time in the data set on Plasmodium berghei [14] is 23.8 days; with Plasmodium berghei [5], more than 28 days; in the data set on Plasmodium berghei [20], 26.2 days; in the data set on Plasmodium berghei [26], 22.8 days. For the same molecule, the outcome with Plasmodium berghei [18], in the data set with Plasmodium berghei [21] and in the data set on Plasmodium berghei [24] was inactive. For the same molecule, the selectivity ratio in [2] was more than 1330; in data set [4], more than 521.

As for `C[C@@H]1CC[C@H]2[C@@H](C)C(=O)O[C@@H]3O[C@@]4(C)CC[C@@H]1[C@]32OO4` [ARTEMISININ], the Activity entry in the data set on Vero is listed as “Non-toxic”.

On to `OC(c1cc(C(F)(F)F)nc2c(C(F)(F)F)cccc12)C1CCCCN1` (stereo not given) [MEFLOQUINE], for which the IC50 in the data set with Plasmodium falciparum [23] was 55.8 nM; with Plasmodium falciparum [28], 7.2 nM.

In general, IC50 refers to the concentration needed to halve the response being measured.
